Measured values: ChEMBL document CHEMBL2380195 (J Med Chem, 2013)
The source made the active and inactive calls. No cut-off for these calls is given here.

What was measured:
[1] = biological target: T1, Prostaglandin G/H synthase 1 (Homo sapiens, UniProt P23219); assay: Reversible inhibition of COX-1 in human THP1 cells assessed as inhibition of arachidonic acid-induced TXB2 formation at 100 uM incubated for 30 mins followed by compound washout measured 30 mins post arachidonic acid challenge by radioimmunoassay; format: cell-based; conditions: THP-1
T1 sequence (P23219 whole entry): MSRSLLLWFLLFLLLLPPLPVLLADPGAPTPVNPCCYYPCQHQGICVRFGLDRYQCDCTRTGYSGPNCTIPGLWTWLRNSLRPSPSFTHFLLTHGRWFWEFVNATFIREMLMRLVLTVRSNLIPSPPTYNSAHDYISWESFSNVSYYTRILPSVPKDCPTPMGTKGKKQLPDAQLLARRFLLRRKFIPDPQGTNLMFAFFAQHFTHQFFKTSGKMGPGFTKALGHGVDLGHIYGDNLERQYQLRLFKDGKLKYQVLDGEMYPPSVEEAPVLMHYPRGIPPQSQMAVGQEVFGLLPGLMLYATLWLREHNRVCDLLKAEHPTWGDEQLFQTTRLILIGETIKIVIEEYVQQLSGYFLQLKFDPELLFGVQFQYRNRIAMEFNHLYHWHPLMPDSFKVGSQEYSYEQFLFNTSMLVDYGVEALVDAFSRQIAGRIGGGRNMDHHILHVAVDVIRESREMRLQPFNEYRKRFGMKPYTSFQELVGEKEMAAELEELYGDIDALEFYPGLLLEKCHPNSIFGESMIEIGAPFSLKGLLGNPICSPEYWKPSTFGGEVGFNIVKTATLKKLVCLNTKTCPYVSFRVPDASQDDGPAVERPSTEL

[2] = biological target: T1, Prostaglandin G/H synthase 1; assay: Inhibition of COX-1 in human THP1 cells assessed as inhibition of arachidonic acid-induced TXB2 formation at 100 uM incubated for 30 mins prior to arachidonic acid challenge measured after 30 mins by radioimmunoassay relative to vehicle-treated control; format: cell-based; conditions: THP-1
[3] = biological target: T1, Prostaglandin G/H synthase 1; assay: Inhibition of COX-1 in human washed platelet assessed as rightward shift in 10 uM arachidonic acid-induced TXB2 formation at 0.01 to 100 uM incubated for 25 mins prior to arachidonic acid challenge measured after 30 mins by radioimmunoassay
[4] = biological target: T1, Prostaglandin G/H synthase 1; assay: Inhibition of COX-1 (unknown origin) in platelet rich plasma assessed as inhibition of collagen-induced TXB2 formation incubated for 5 mins prior to collagen challenge measured for 5 mins by aggregometric analysis
[5] = biological target: T1, Prostaglandin G/H synthase 1; assay: Inhibition of COX-1 (unknown origin) in platelet rich plasma assessed as inhibition of arachidonic acid-induced TXB2 formation incubated for 5 mins prior to arachidonic acid challenge measured for 5 mins by aggregometric analysis
[6] = biological target: T1, Prostaglandin G/H synthase 1; assay: Inhibition of COX-1 (unknown origin) in platelet rich plasma assessed as inhibition of collagen-induced platelet aggregation at 30 uM incubated for 5 mins prior to collagen challenge measured for 5 mins by aggregometric analysis relative to vehicle-treated control
[7] = biological target: T1, Prostaglandin G/H synthase 1; assay: Inhibition of COX-1 (unknown origin) in platelet rich plasma assessed as inhibition of arachidonic acid-induced platelet aggregation at 30 uM incubated for 5 mins prior to arachidonic acid challenge measured for 5 mins by aggregometric analysis relative to vehicle-treated control
[8] = biological target: T2, Prostaglandin G/H synthase 2 (Homo sapiens) (UniProt P35354); assay: Inhibition of COX-2 in human whole blood assessed as inhibition of LPS-induced plasma PGE2 level at 1000 uM by radioimmunoassay relative to control
T2 sequence (whole entry): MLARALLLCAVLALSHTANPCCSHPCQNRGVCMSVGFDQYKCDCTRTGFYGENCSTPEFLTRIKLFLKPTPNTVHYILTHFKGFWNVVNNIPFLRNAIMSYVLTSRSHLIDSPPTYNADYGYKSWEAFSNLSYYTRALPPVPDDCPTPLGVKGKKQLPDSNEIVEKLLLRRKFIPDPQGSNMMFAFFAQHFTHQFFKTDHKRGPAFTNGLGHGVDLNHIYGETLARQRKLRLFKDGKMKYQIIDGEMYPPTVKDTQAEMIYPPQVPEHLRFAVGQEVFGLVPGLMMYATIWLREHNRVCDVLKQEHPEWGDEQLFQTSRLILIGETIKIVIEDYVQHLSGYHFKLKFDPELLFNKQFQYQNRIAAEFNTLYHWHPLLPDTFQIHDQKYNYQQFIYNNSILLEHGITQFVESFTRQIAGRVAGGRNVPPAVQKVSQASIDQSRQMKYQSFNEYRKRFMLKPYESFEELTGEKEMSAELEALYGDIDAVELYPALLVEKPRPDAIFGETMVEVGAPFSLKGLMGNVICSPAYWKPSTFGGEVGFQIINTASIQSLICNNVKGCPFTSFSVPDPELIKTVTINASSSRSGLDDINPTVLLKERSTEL

[9] = biological target: COX-1/COX-2 (Homo sapiens) (UniProt P35354+P23219); assay: Selectivity ratio of IC50 for COX-2 in human whole blood to COX-1 in human whole blood; format: tissue-based
Chain of COX-1/COX-2 (Homo sapiens) (P23219 whole entry, looked up, one chain of several): as the sequence (P23219 whole entry) above

[10] = biological target: T1, Prostaglandin G/H synthase 1; assay: Inhibition of COX-1 in human whole blood assessed as inhibition of serum TXB2 level after 1 hr by radioimmunoassay
[11] = biological target: T1, Prostaglandin G/H synthase 1; conditions: at 0.01 to 100 µM
[12] = biological target: Prostaglandin G/H synthase 2 (Homo sapiens) (UniProt P35354); assay: Inhibition of COX-2 in human MDA-MB-231 cells assessed as inhibition of arachidonic acid-induced PGE2 formation at 100 uM incubated for 30 mins prior to arachidonic acid challenge measured after 30 mins by radioimmunoassay relative to vehicle-treated control
[13] = biological target: T3, Prostaglandin G/H synthase 2 (Homo sapiens, UniProt P35354); assay: Inhibition of COX-2 in human whole blood assessed as inhibition of LPS-induced plasma PGE2 level by radioimmunoassay
T3 sequence (P35354 whole entry): T2 sequence (whole entry)

[14] = biological target: T1, Prostaglandin G/H synthase 1; assay: Irreversible inhibition of COX-1 in human THP1 cells assessed as inhibition of arachidonic acid-induced TXB2 formation at 100 uM incubated for 30 mins followed by compound washout measured 30 mins post arachidonic acid challenge by radioimmunoassay; format: cell-based; conditions: THP-1
[15] = biological target: T1, Prostaglandin G/H synthase 1; assay: Inhibition of COX-1 in human washed platelet assessed as inhibition of 10 uM arachidonic acid-induced TXB2 formation at 0.01 to 100 uM incubated for 25 mins prior to arachidonic acid challenge measured after 30 mins by radioimmunoassay
[16] = biological target: T1, Prostaglandin G/H synthase 1; assay: Inhibition of COX-1 (unknown origin) in platelet rich plasma assessed as inhibition of collagen-induced platelet aggregation at 10 uM incubated for 5 mins prior to collagen challenge measured for 5 mins by aggregometric analysis relative to vehicle-treated control
[17] = biological target: T1, Prostaglandin G/H synthase 1; assay: Inhibition of COX-1 (unknown origin) in platelet rich plasma assessed as inhibition of collagen-induced platelet aggregation up to 3 uM incubated for 5 mins prior to collagen challenge measured for 5 mins by aggregometric analysis
[18] = biological target: T1, Prostaglandin G/H synthase 1; assay: Inhibition of COX-1 (unknown origin) in platelet rich plasma assessed as inhibition of collagen-induced platelet aggregation incubated for 5 mins prior to collagen challenge measured for 5 mins by aggregometric analysis
[19] = biological target: T1, Prostaglandin G/H synthase 1; assay: Inhibition of COX-1 (unknown origin) in platelet rich plasma assessed as inhibition of arachidonic acid-induced platelet aggregation at 10 uM incubated for 5 mins prior to arachidonic acid challenge measured for 5 mins by aggregometric analysis relative to vehicle-treated control
[20] = biological target: T1, Prostaglandin G/H synthase 1; assay: Inhibition of COX-1 (unknown origin) in platelet rich plasma assessed as inhibition of arachidonic acid-induced platelet aggregation up to 3 uM incubated for 5 mins prior to arachidonic acid challenge measured for 5 mins by aggregometric analysis
[21] = Binding affinity to human alpha1-acid glycoprotein by HPLC analysis relative to control; format: ADME; conditions: pooled result: one value given for 2 cell lines, strains, targets or settings
[22] = biological target: Prostaglandin G/H synthase 2 (Homo sapiens) (UniProt P35354); assay: Irreversible inhibition of COX-2 in human MDA-MB-231 cells assessed as inhibition of arachidonic acid-induced PGE2 formation at 100 uM incubated for 30 mins followed by compound washout measured 30 mins post arachidonic acid challenge by radioimmunoassay
[23] = species: Mus musculus; assay: Antithrombotic activity in LDLR-/- C57BL/6 mouse assessed as reduction of 11-dehydro-TXB2 level in urine at 30 mg/L after 18 weeks relative to vehicle-treated control; format: functional; design: scale not given: the % may be the effect or the level left
[24] = system: Homo sapiens; assay: Antithrombotic activity in human assessed as reduction of 11-dehydro-TXB2 level in urine at 100 mg/day administered 6 days measured for 24 hrs post last dose relative to vehicle-treated control; format: functional; design: scale not given: the % may be the effect or the level left
[25] = system: Mus musculus; assay: Antithrombotic activity in C57BL/6 mouse assessed as reduction of 6-keto-PGF1alpha level in urine at 20 mg/kg, po administered 3 days measured for 24 hrs post third dose; format: functional, organism-based; design: dose 20 mg/kg
[26] = system: Mus musculus; assay: Antithrombotic activity in C57BL/6 mouse assessed as reduction of 11-dehydro-TXB2 level in urine at 20 mg/kg, po administered 3 days measured for 24 hrs post third dose relative to vehicle-treated control; format: functional; design: scale not given: the % may be the effect or the level left
[27] = biological target: Prostaglandin G/H synthase 2 (Homo sapiens) (UniProt P35354); assay: Reversible inhibition of COX-2 in human MDA-MB-231 cells assessed as inhibition of arachidonic acid-induced PGE2 formation at 100 uM incubated for 30 mins followed by compound washout measured 30 mins post arachidonic acid challenge by radioimmunoassay

CC(=O)OCc1onc(-c2ccc(Cl)o2)c1-c1ccccc1
inhibition [1]: Active | inhibition [2]: > 90% | inhibition [3]: Active | IC50 [4]: 23 µM | IC50 [5]: 20 µM | inhibition [6]: 62% | inhibition [7]: 97% | inhibition [8]: 40% | Ratio IC50 [9]: > 20 | IC50 [10]: 5 µM | inhibition [11]: Active | inhibition [12]: inactive

O=C(O)c1c(-c2ccccc2)noc1-c1ccccc1
IC50 [13]: > 100 µM | IC50 [10]: > 100 µM

O=C(OCCCO[N+](=O)[O-])c1onc(-c2ccc(Cl)o2)c1-c1ccccc1
IC50 [13]: > 100 µM | IC50 [10]: > 100 µM

CC(C)Cc1ccc(C(C)C(=O)O)cc1 (stereo unspecified)
inhibition [1]: Active | inhibition [2]: > 90%

Cc1ccc(-c2noc(C)c2-c2ccccc2)o1
inhibition [14]: Active | inhibition [2]: > 90% | inhibition [15]: Active | IC50 [4]: 7.4 µM | inhibition [4]: Dose-dependent effect | IC50 [5]: 4.3 µM | inhibition [5]: Dose-dependent effect | inhibition [16]: 66% | inhibition [17]: inactive | inhibition [18]: Dose-dependent effect | inhibition [19]: 97.8% | inhibition [20]: inactive | Activity [21]: 94.7% | Ratio IC50 [9]: 213 | IC50 [13]: 68.2 µM | IC50 [10]: 0.32 µM | inhibition [11]: Active | inhibition [22]: Active | inhibition [12]: 70%

O=C(OCCCN1CCOCC1)c1onc(-c2ccc(Cl)o2)c1-c1ccccc1
IC50 [13]: > 100 µM | IC50 [10]: > 100 µM

COC(=O)c1c(-c2ccc(Cl)o2)noc1-c1ccccc1
Ratio IC50 [9]: > 5.75 | IC50 [13]: > 100 µM | IC50 [10]: 17.4 µM

Cc1onc(-c2ccc(Cl)o2)c1-c1ccccc1F
Ratio IC50 [9]: > 52.6

Cc1onc(-c2ccccc2Cl)c1-c1ccccc1
Ratio IC50 [9]: 4.07 | IC50 [13]: 1.1 µM | IC50 [10]: 0.27 µM

OCc1onc(-c2ccc(Cl)o2)c1-c1ccccc1
Ratio IC50 [9]: > 23.8 | IC50 [13]: > 100 µM

CC(=O)Oc1ccccc1C(=O)O [ASPIRIN]
Activity [23]: 70% | Activity [24]: 70% | inhibition [14]: Active | inhibition [2]: > 90% | inhibition [15]: Active | inhibition [11]: Active

Cc1onc(-c2ccc(Cl)o2)c1-c1ccc(F)cc1
Ratio IC50 [9]: 9.05 | IC50 [13]: 17.2 µM

O=C(O)c1onc(-c2ccc(Cl)o2)c1-c1ccccc1
IC50 [13]: > 100 µM | IC50 [10]: > 100 µM

Cc1onc(-c2cccc(Cl)c2)c1-c1ccccc1
Ratio IC50 [9]: 0.21 | IC50 [13]: 0.27 µM | IC50 [10]: 1.3 µM

Cc1onc(C2CCCO2)c1-c1ccccc1 (stereo unspecified)
IC50 [13]: > 100 µM | IC50 [10]: > 100 µM

CC(=O)/C(=C(\N)c1ccco1)c1ccccc1
Ratio IC50 [9]: > 2.7 | IC50 [13]: > 100 µM | IC50 [10]: 37 µM

FC(F)(F)c1onc(-c2ccc(Cl)o2)c1-c1ccccc1
Activity [25]: inactive | Activity [26]: 70% | inhibition [14]: Active | inhibition [2]: > 90% | inhibition [15]: Active | IC50 [4]: 10 µM | inhibition [4]: Dose-dependent effect | IC50 [5]: 3.7 µM | inhibition [5]: Dose-dependent effect | inhibition [16]: 72% | inhibition [17]: inactive | inhibition [18]: Dose-dependent effect | inhibition [19]: 99.2% | inhibition [20]: inactive | Activity [21]: 94.3% | inhibition [8]: 49% | Ratio IC50 [9]: > 123 | inhibition [11]: Active | inhibition [27]: Active | inhibition [12]: 70%

Cc1onc(-c2ccc(Cl)o2)c1-c1ccccc1
IC50 [4]: 18.6 µM | IC50 [5]: 12 µM | Activity [21]: 95.7%

COC(=O)c1c(-c2ccccc2)noc1-c1ccccc1
Ratio IC50 [9]: > 5.79 | IC50 [13]: > 100 µM | IC50 [10]: 17.3 µM

O=C(O)c1c(-c2ccc(Cl)o2)noc1-c1ccccc1
IC50 [13]: > 100 µM | IC50 [10]: > 100 µM

Cc1onc(-c2ccco2)c1-c1ccccc1
Ratio IC50 [9]: 9.29 | IC50 [13]: 20.4 µM | IC50 [10]: 2.2 µM

Cc1onc(-c2ccc(Br)o2)c1-c1ccccc1
inhibition [14]: Active | inhibition [2]: > 90% | inhibition [15]: Active | IC50 [4]: 7.6 µM | inhibition [4]: Dose-dependent effect | IC50 [5]: 3.4 µM | inhibition [5]: Dose-dependent effect | inhibition [16]: 78% | inhibition [17]: inactive | inhibition [18]: Dose-dependent effect | inhibition [19]: 96.3% | inhibition [20]: inactive | Activity [21]: 96.1% | Ratio IC50 [9]: 103 | IC50 [13]: 34 µM | IC50 [10]: 0.33 µM | inhibition [11]: Active | inhibition [27]: Active | inhibition [12]: 70%

COC(=O)c1onc(-c2ccc(Cl)o2)c1-c1ccccc1
Ratio IC50 [9]: > 5.21 | IC50 [13]: > 100 µM | IC50 [10]: 19.2 µM

CC(=O)/C(=C(\N)c1ccc(Cl)o1)c1ccccc1
IC50 [13]: > 100 µM | IC50 [10]: > 100 µM
